Patent publication US9458133B2, “Isoquinolines as potassium ion channel inhibitors” (BRISTOL-MYERS SQUIBB COMPANY, priority 2013, dated 2016)

Target: T1, human Kv 1.5 (Homo sapiens, UniProt P22460)
T1 construct: expressed in transfected cells; host or cells: mouse L-929 fibroblasts stably expressing human Kv1.5
Assay: Block of IKur current in patch clamped L-929 cells stably expressing human Kv1.5
Assay type: cell-based
Settings: L929, 0.3 μM; patch clamped mammalian L-929 cells expressing human Kv1.5 (IKur); read-out: KV1_5% Inh L929 @0.3 μM
Description: Synders, D. J. et al., “A rapidly activating and slowly inactivating potassium channel cloned from human heart: functional analysis after stable mammalian cell culture expression”, J. Gen. Physiol., 101:513-543 (1993). […]

T1 sequence (P22460 whole entry): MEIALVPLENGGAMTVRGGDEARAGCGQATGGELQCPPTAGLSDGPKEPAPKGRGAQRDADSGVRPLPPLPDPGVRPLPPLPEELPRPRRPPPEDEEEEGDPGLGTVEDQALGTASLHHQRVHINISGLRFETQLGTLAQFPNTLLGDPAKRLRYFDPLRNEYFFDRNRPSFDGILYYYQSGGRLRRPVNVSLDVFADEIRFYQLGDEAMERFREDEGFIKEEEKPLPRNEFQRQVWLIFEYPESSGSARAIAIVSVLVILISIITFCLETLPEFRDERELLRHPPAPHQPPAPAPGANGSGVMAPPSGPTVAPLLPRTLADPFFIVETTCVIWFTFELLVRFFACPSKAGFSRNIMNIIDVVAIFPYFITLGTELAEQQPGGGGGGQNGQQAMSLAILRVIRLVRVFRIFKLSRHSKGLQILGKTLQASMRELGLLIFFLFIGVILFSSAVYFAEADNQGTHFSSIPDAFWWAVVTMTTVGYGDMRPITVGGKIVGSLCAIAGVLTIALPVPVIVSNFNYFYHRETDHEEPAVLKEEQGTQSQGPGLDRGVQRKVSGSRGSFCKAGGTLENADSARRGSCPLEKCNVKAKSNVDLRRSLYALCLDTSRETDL

Row | inhibition at 0.3 µM | SMILES
1 | 64.5% | Cc1n[nH]c(C)c1-c1cc2cccc(-c3ccccc3)c2c(NCc2ccccn2)n1 [Example 20, 3-(3,5-dimethyl-1H-pyrazol-4-yl)-8-phenyl-N-(pyridin-2-ylmethyl)isoquinolin-1-amine]
2 | 97.6% | NS(=O)(=O)c1ccc(-c2c(Cl)nc(NCc3ccccn3)c3c(-c4ccccc4)cccc23)cc1 [Example 55, 4-(3-chloro-8-phenyl-1-(pyridin-2-ylmethylamino)isoquinolin-4-yl)benzenesulfonamide]
3 | 99.3% | NC(=O)c1cccc(-c2c(Cl)nc(NCc3ccccn3)c3c(-c4ccccc4)cccc23)c1 [Example 66, 3-(3-chloro-8-phenyl-1-(pyridin-2-ylmethylamino)isoquinolin-4-yl)benzamide]
4 | 76.1% | C1=C(c2cnc(NCc3ccccc3)c3c(-c4ccccc4)cccc23)CCOC1 [Example 28, N-benzyl-4-(3,6-dihydro-2H-pyran-4-yl)-8-phenylisoquinolin-1-amine]
5 | 50.5% | NS(=O)(=O)c1ccccc1-c1cc2cccc(-c3ccccc3)c2c(NCc2ccccn2)n1 [Example 65, 2-(8-phenyl-1-(pyridin-2-ylmethylamino)isoquinolin-3-yl)benzenesulfonamide]
6 | 15.2% | CC(=O)Nc1ccc(-c2cc3cccc(-c4ccccc4)c3c(NCc3ccccn3)n2)cc1 [Example 31, N-(4-(8-phenyl-1-(pyridin-2-ylmethylamino)isoquinolin-3-yl)phenyl)acetamide]
7 | 22.8% | Nc1ccc(-c2cc3cccc(-c4ccccc4)c3c(NCc3ccccn3)n2)cn1 [Example 58, 3-(6-aminopyridin-3-yl)-8-phenyl-N-(pyridin-2-ylmethyl)isoquinolin-1-amine]
8 | 94% | NS(=O)(=O)c1cncc(-c2cc3cccc(-c4ccccc4)c3c(NCc3ncccc3F)n2)c1 [Example 22, 5-(1-((3-fluoropyridin-2-yl)methylamino)-8-phenylisoquinolin-3-yl)pyridine-3-sulfonamide]
9 | 92.5% | CC(C)C(Nc1nc(Cl)c(-c2cncc(S(N)(=O)=O)c2)c2cccc(-c3ccccc3)c12)c1ccccn1 (centres unmarked) [Example 80, 5-(3-chloro-1-(2-methyl-1-(pyridin-2-yl)propylamino)-8-phenylisoquinolin-4-yl)pyridine-3-sulfonamide]
10 | 80.2% | c1ccc(-c2cccc3cc(-c4cc[nH]n4)nc(NCc4ccccn4)c23)cc1 [Example 23, 8-phenyl-3-(1H-pyrazol-3-yl)-N-(pyridin-2-ylmethyl)isoquinolin-1-amine]
11 | 52.2% | Nc1ccccc1-c1cc2cccc(-c3ccccc3)c2c(NCc2ccccn2)n1 [Example 49, 3-(2-aminophenyl)-8-phenyl-N-(pyridin-2-ylmethyl)isoquinolin-1-amine]
12 | 99% | NS(=O)(=O)c1cccc(-c2cnc(NCc3ccccn3)c3c(-c4ccccc4)cccc23)c1 [Example 85, 3-(8-phenyl-1-(pyridin-2-ylmethylamino)isoquinolin-4-yl)benzenesulfonamide]
13 | 51.3% | CC(=O)Nc1ccccc1-c1cc2cccc(-c3ccccc3)c2c(NCc2ccccn2)n1 [Example 30, N-(2-(8-phenyl-1-(pyridin-2-ylmethylamino)isoquinolin-3-yl)phenyl)acetamide]
14 | 96.9% | COc1ccc(-c2cc3cccc(-c4ccccc4)c3c(NCc3ccccn3)n2)cn1 [Example 67, 3-(6-methoxypyridin-3-yl)-8-phenyl-N-(pyridin-2-ylmethyl)isoquinolin-1-amine]
15 | 75.6% | NS(=O)(=O)Nc1cncc(-c2cc3cccc(-c4ccccc4)c3c(NCc3ccccn3)n2)c1 [Example 5]
16 | 79.5% | Cc1cnc(CNc2nc(-c3cncc(S(N)(=O)=O)c3)cc3cccc(-c4ccccc4)c23)cn1 [Example 74, 5-(1-((5-methylpyrazin-2-yl)methylamino)-8-phenylisoquinolin-3-yl)pyridine-3-sulfonamide]
17 | 66.2% | Nc1cncc(-c2cc3cccc(-c4ccccc4)c3c(NCc3ccccn3)n2)c1 [Example 2, 3-(5-Aminopyridin-3-yl)-8-phenyl-N-(pyridin-2-ylmethyl)isoquinolin-1-amine]
18 | 97.3% | NS(=O)(=O)c1cncc(-c2c(Cl)nc(NCc3ccccc3)c3c(-c4ccccc4)cccc23)c1 [Example 75, 5-(1-(benzylamino)-3-chloro-8-phenylisoquinolin-4-yl)pyridine-3-sulfonamide]
19 | 98.6% | NC(=O)c1ccc(-c2c(Cl)nc(NCc3ccccn3)c3c(-c4ccccc4)cccc23)cc1 [Example 57, 4-(3-chloro-8-phenyl-1-(pyridin-2-ylmethylamino)isoquinolin-4-yl)benzamide]
20 | 40.1% | Cc1cc(C)cc(CNc2nc(-c3cncc(S(N)(=O)=O)c3)cc3cccc(-c4ccccc4)c23)c1 [Example 53, 5-(1-(3,5-dimethylbenzylamino)-8-phenylisoquinolin-3-yl)pyridine-3-sulfonamide]
21 | 16.1% | NS(=O)(=O)c1cncc(-c2cc3cccc(-c4ccccc4)c3c(NCc3csc(-c4ccccc4)n3)n2)c1 [Example 72, 5-(8-phenyl-1-((2-phenylthiazol-4-yl)methylamino)isoquinolin-3-yl)pyridine-3-sulfonamide]
22 | 19.3% | Clc1nc(NCc2ccccc2)c2c(-c3ccccc3)cccc2c1C1=CCOCC1 [Example 83, N-benzyl-3-chloro-4-(3,6-dihydro-2H-pyran-4-yl)-8-phenylisoquinolin-1-amine]
23 | 82.4% | COc1cccc(CNc2nc(-c3cncc(S(N)(=O)=O)c3)cc3cccc(-c4ccccc4)c23)c1 [Example 54, 5-(1-(3-methoxybenzylamino)-8-phenylisoquinolin-3-yl)pyridine-3-sulfonamide]
24 | 60.3% | NC(=O)c1ccc(-c2cc3cccc(-c4ccccc4)c3c(NCc3ccccn3)n2)cc1 [Example 42, 4-(8-phenyl-1-(pyridin-2-ylmethylamino)isoquinolin-3-yl)benzamide]
25 | 88.4% | NS(=O)(=O)c1cncc(-c2c(Cl)nc(NCC3CCOCC3)c3c(-c4ccccc4)cccc23)c1 [Example 29, 5-(3-chloro-8-phenyl-1-((tetrahydro-2H-pyran-4-yl)methylamino)isoquinolin-4-yl)pyridine-3-sulfonamide]
26 | 50.6% | NS(=O)(=O)c1cncc(-c2cc3cccc(-c4ccc(F)cc4)c3c(NCc3ccccn3)n2)c1 [Example 21, 5-(8-(4-fluorophenyl)-1-(pyridin-2-ylmethylamino)isoquinolin-3-yl)pyridine-3-sulfonamide]
27 | 95.1% | N#Cc1cccc(-c2c(Cl)nc(NCc3ccccn3)c3c(-c4ccccc4)cccc23)c1 [Example 61, 3-(3-chloro-8-phenyl-1-(pyridin-2-ylmethylamino)isoquinolin-4-yl)benzonitrile]
28 | 34.8% | NC(=O)CS(=O)(=O)c1cccc(-c2cc3cccc(-c4ccccc4)c3c(NCc3ccccn3)n2)c1 [Example 7, 2-(3-(8-Phenyl-1-(pyridin-2-ylmethylamino)isoquinolin-3-yl)phenylsulfonyl)acetamide]
29 | 92.3% | N#Cc1ccc(-c2cc3cccc(-c4ccccc4)c3c(NCc3ccccn3)n2)cc1 [Example 40, 4-(8-phenyl-1-(pyridin-2-ylmethylamino)isoquinolin-3-yl)benzonitrile]
